Each compound was assayed against G12C K-Ras4B (1-169) (Homo sapiens (Human), UniProt P01116, G12C) (assay: Test of compounds on whether to bind to KRASG12C (LC-MS compound binding rate)). Details: final compound concentration of 2 μM, 1 μM protein, 25° C. for 2 hours.
G12C K-Ras4B (1-169), sequence (P01116 other isoform, or with tags, fused parts or gaps G12C): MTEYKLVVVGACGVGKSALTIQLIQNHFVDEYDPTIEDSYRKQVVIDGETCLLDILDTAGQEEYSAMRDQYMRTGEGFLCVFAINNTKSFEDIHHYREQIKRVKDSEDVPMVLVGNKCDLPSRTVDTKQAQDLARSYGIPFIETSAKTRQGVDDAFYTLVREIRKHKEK
Outline: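 K-Ras4B (1-169) WT and G12C (1 μM each, mixed) in 1×TBS, 0.1 mM TCEP incubated with compound (final 2 μM) 2 h at 25° C; quenched with 0.2% formic acid. Intact-protein LC-MS (ESI+, deconvoluted); binding rate = adduct signal/(adduct + unbound signal), giving selectivity over WT.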
`C=CC(=O)N1C[C@@H](O)[C@@H](NC(=O)c2c(C)nc(CNc3n[nH]c4cc(Cl)c(C(C)(C)C)cc34)n2C)C1` [Example 56, N-((3S,4R)-1-acryloyl-4-hydroxypyrrolidin-3-yl)-2-(((5-(tert-butyl)-6-chloro-1H-indazol-3-yl)amino)methyl)-1,4-dimethyl-1H-imidazole-5-carboxamide] was tested, and the “binding rate for G12C K-Ras4B (1-169)” value was “C (a binding rate of 40% or more and less than 60% is rated “C,”)”. `C=CC(=O)N1CC(NC(=O)c2c(C)c(CNc3n[nH]c4cc(Cl)c(C(C)(C)C)cc34)nn2C)C1` [Example 10, N-(1-acryloylazetidin-3-yl)-3-(((5-(tert-butyl)-6-chloro-1H-indazol-3-yl)amino)methyl)-1,4-dimethyl-1H-pyrazole-5-carboxamide] was tested, and the “binding rate for G12C K-Ras4B (1-169)” value was “B (a binding rate of 60% or more and less than 80% is rated “B,”)”. In the case of `C=CC(=O)N1CC(NC(=O)c2cnc(CNc3n[nH]c4cc(Cl)c(C(C)(C)C)cc34)n2Cc2cc(OC)cc(OC)c2)C1` [Example 88, N-(1-acryloylazetidin-3-yl)-2-(((5-(tert-butyl)-6-chloro-1H-indazol-3-yl)amino)methyl)-1-(3,5-dimethoxybenzyl)-1H-imidazole-5-carboxamide], the “binding rate for G12C K-Ras4B (1-169)” value is reported as “B (a binding rate of 60% or more and less than 80% is rated “B,”)”. With `C=CC(=O)N1CCC(NC(=O)c2c(C)nc(CNc3n[nH]c4cc(Cl)c(C(C)(C)C)cc34)n2C)C1` (centres unmarked) [Example 48, N-(1-acryloylpyrrolidin-3-yl)-2-(((5-(tert-butyl)-6-chloro-1H-indazol-3-yl)amino)methyl)-1,4-dimethyl-1H-imidazole-5-carboxamide] the “binding rate for G12C K-Ras4B (1-169)” value was “B (a binding rate of 60% or more and less than 80% is rated “B,”)”. In the case of `C=CC(=O)N1C[C@@H](F)[C@@H](NC(=O)c2c(C)nc(CNc3n[nH]c4cc(Cl)c(C(C)(C)C)cc34)n2C)C1` [Example 57, N-((3S,4R)-1-acryloyl-4-fluoropyrrolidin-3-yl)-2-(((5-(tert-butyl)-6-chloro-1H-indazol-3-yl)amino)methyl)-1,4-dimethyl-1H-imidazole-5-carboxamide], the “binding rate for G12C K-Ras4B (1-169)” value is reported as “C (a binding rate of 40% or more and less than 60% is rated “C,”)”. For `C=CC(=O)N(C)C1CN(C(=O)c2c(C)nc(CNc3n[nH]c4cc(Cl)c(C(C)(C)C)cc34)n2C)C1` [Example 51, N-(1-(2-(((5-(tert-butyl)-6-chloro-1H-indazol-3-yl)amino)methyl)-1,4-dimethyl-1H-imidazole-5-carbonyl)azetidin-3-yl)-N-methylacrylamide], the “binding rate for G12C K-Ras4B (1-169)” value was “B (a binding rate of 60% or more and less than 80% is rated “B,”)”. `C=CC(=O)N1CC(NC(=O)c2c(Cl)nc(CNc3n[nH]c4cc(Cl)c(C(C)(C)C)cc34)n2[C@@H]2C[C@@H](O)[C@@H](O)C2)C1` [Example 99] was tested, and the “binding rate for G12C K-Ras4B (1-169)” value was “A (a binding rate of 80% or more is rated “A,”)”. In the case of `C=CC(=O)N1C[C@H](NC(=O)c2c(C(F)F)nc(CNc3n[nH]c4cc(Cl)c(C(C)(C)C)cc34)n2C)[C@@H](F)C1` [Example 70, N-((3S,4S)-1-acryloyl-4-fluoropyrrolidin-3-yl)-2-(((5-(tert-butyl)-6-chloro-1H-indazol-3-yl)amino)methyl)-4-(difluoromethyl)-1-methyl-1H-imidazole-5-carboxamide], the “binding rate for G12C K-Ras4B (1-169)” value is reported as “A (a binding rate of 80% or more is rated “A,”)”. With `C=CC(=O)N1CC(NC(=O)c2sc(CNc3n[nH]c4cc(Cl)c(C(C)(C)C)cc34)nc2C)C1` [Example 2, N-(1-acryloylazetidin-3-yl)-2-(((5-(tert-butyl)-6-chloro-1H-indazol-3-yl)amino)methyl)-4-methylthiazole-5-carboxamide] the “binding rate for G12C K-Ras4B (1-169)” value was “B (a binding rate of 60% or more and less than 80% is rated “B,”)”. For `C=CC(=O)N1C[C@@H](CC)[C@@H](NC(=O)c2c(C)nc(CNc3n[nH]c4cc(Cl)c(C(C)(C)C)cc34)n2C)C1` [Example 69, N-((3R,4R)-1-acryloyl-4-ethylpyrrolidin-3-yl)-2-(((5-(tert-butyl)-6-chloro-1H-indazol-3-yl)amino)methyl)-1,4-dimethyl-1H-imidazole-5-carboxamide], the “binding rate for G12C K-Ras4B (1-169)” value was “E (a binding rate of less than 20% is rated “E.”)”. With `C=CC(=O)N1CC(NC(=O)c2c(Cl)nc(CNc3n[nH]c4cc(Cl)c(C(C)(C)C)cc34)n2[C@@H]2CCN(C3CC3)C2)C1` [Example 120, (R)—N-(1-acryloylazetidin-3-yl)-2-(((5-(tert-butyl)-6-chloro-1H-indazol-3-yl)amino)methyl)-4-chloro-1-(1-cyclopropylpyrrolidin-3-yl)-1H-imidazole-5-carboxamide] the “binding rate for G12C K-Ras4B (1-169)” value was “A (a binding rate of 80% or more is rated “A,”)”. In the case of `C=CC(=O)N1CC(NC(=O)c2c(C(F)(F)F)nc(CNc3n[nH]c4cc(Cl)c(C(C)(C)C)cc34)n2C(C)C)C1` [Example 32, N-(1-acryloylazetidin-3-yl)-2-(((5-(tert-butyl)-6-chloro-1H-indazol-3-yl)amino)methyl)-1-isopropyl-4-(trifluoromethyl)-1H-imidazole-5-carboxamide], the “binding rate for G12C K-Ras4B (1-169)” value is reported as “B (a binding rate of 60% or more and less than 80% is rated “B,”)”. For `C=CC(=O)N1C[C@@H](CN(C)C)[C@@H](NC(=O)c2c(C)nc(CNc3n[nH]c4cc(Cl)c(C(C)(C)C)cc34)n2C)C1` [Example 68, N-((3R,4R)-1-acryloyl-4-((dimethylamino)methyl)pyrrolidin-3-yl)-2-(((5-(tert-butyl)-6-chloro-1H-indazol-3-yl)amino)methyl)-1,4-dimethyl-1H-imidazole-5-carboxamide], the “binding rate for G12C K-Ras4B (1-169)” value was “C (a binding rate of 40% or more and less than 60% is rated “C,”)”. With `C=CC(=O)N1CC(NC(=O)c2c(Cl)nc(CNc3n[nH]c4cc(Cl)c(C(C)(C)C)cc34)n2[C@@H]2CCN(CC(F)F)[C@H]2C)C1` [Example 125, N-(1-acryloylazetidin-3-yl)-2-(((5-(tert-butyl)-6-chloro-1H-indazol-3-yl)amino)methyl)-4-chloro-1-((2S,3R)-1-(2,2-difluoroethyl)-2-methylpyrrolidin-3-yl)-1H-imidazole-5-carboxamide] the “binding rate for G12C K-Ras4B (1-169)” value was “A (a binding rate of 80% or more is rated “A,”)”. In the case of `C=CC(=O)N1CC(NC(=O)c2c(C(F)(F)F)nc(CNc3n[nH]c4cc(Cl)c(C(C)(C)C)cc34)n2C)C1` [Example 25, N-(1-acryloylazetidin-3-yl)-2-(((5-(tert-butyl)-6-chloro-1H-indazol-3-yl)amino)methyl)-1-methyl-4-(trifluoromethyl)-1H-imidazole-5-carboxamide], the “binding rate for G12C K-Ras4B (1-169)” value is reported as “A (a binding rate of 80% or more is rated “A,”)”. For `C=CC(=O)N1CC(NC(=O)c2c(C)nc(CNc3n[nH]c4cc(Cl)c(C(C)(C)C)cc34)n2CC(F)(F)F)C1` [Example 22, N-(1-acryloylazetidin-3-yl)-2-(((5-(tert-butyl)-6-chloro-1H-indazol-3-yl)amino)methyl)-4-methyl-1-(2,2,2-trifluoroethyl)-1H-imidazole-5-carboxamide], the “binding rate for G12C K-Ras4B (1-169)” value was “B (a binding rate of 60% or more and less than 80% is rated “B,”)”. For `C=CC(=O)N1C[C@@H](CF)[C@@H](NC(=O)c2c(C)nc(CNc3n[nH]c4cc(Cl)c(C(C)(C)C)cc34)n2C)C1` [Example 66, N-((3R,4R)-1-acryloyl-4-(fluoromethyl)pyrrolidin-3-yl)-2-(((5-(tert-butyl)-6-chloro-1H-indazol-3-yl)amino)methyl)-1,4-dimethyl-1H-imidazole-5-carboxamide], the “binding rate for G12C K-Ras4B (1-169)” value was “A (a binding rate of 80% or more is rated “A,”)”. For `C=CC(=O)N1CC(NC(=O)c2cnc(CNc3n[nH]c4cc(Cl)c(C)cc34)n2C)C1` [Example 37, N-(1-acryloylazetidin-3-yl)-2-(((6-chloro-5-methyl-1H-indazol-3-yl)amino)methyl)-1-methyl-1H-imidazole-5-carboxamide], the “binding rate for G12C K-Ras4B (1-169)” value was “C (a binding rate of 40% or more and less than 60% is rated “C,”)”. For `C=CC(=O)N1C[C@@H](COC)[C@@H](NC(=O)c2c(C)nc(CNc3n[nH]c4cc(Cl)c(C(C)(C)C)cc34)n2C)C1` [Example 67, N-((3R,4R)-1-acryloyl-4-(methoxymethyl)pyrrolidin-3-yl)-2-(((5-(tert-butyl)-6-chloro-1H-indazol-3-yl)amino)methyl)-1,4-dimethyl-1H-imidazole-5-carboxamide], the “binding rate for G12C K-Ras4B (1-169)” value was “A (a binding rate of 80% or more is rated “A,”)”. `C=CC(=O)N1CC(NC(=O)c2c(Cl)nc(CNc3n[nH]c4cc(Cl)c(C(C)(C)C)cc34)n2C2CCCCC2)C1` [Example 109, N-(1-acryloylazetidin-3-yl)-2-(((5-(tert-butyl)-6-chloro-1H-indazol-3-yl)amino)methyl)-4-chloro-1-cyclohexyl-1H-imidazole-5-carboxamide] was tested, and the “binding rate for G12C K-Ras4B (1-169)” value was “B (a binding rate of 60% or more and less than 80% is rated “B,”)”. For `C=CC(=O)N1CC(N(C)C(=O)c2c(C)nc(CNc3n[nH]c4cc(Cl)c(C(C)(C)C)cc34)n2C)C1` [Example 49, N-(1-acryloylazetidin-3-yl)-2-(((5-(tert-butyl)-6-chloro-1H-indazol-3-yl)amino)methyl)-N,1,4-trimethyl-1H-imidazole-5-carboxamide], the “binding rate for G12C K-Ras4B (1-169)” value was “C (a binding rate of 40% or more and less than 60% is rated “C,”)”. `C=CC(=O)N1CC[C@@H](NC(=O)c2c(F)nc(CNc3n[nH]c4cc(Cl)c(C(C)(C)C)cc34)n2C)C1` [Example 72, (R)—N-(1-acryloylpyrrolidin-3-yl)-2-(((5-(tert-butyl)-6-chloro-1H-indazol-3-yl)amino)methyl)-4-fluoro-1-methyl-1H-imidazole-5-carboxamide] was tested, and the “binding rate for G12C K-Ras4B (1-169)” value was “B (a binding rate of 60% or more and less than 80% is rated “B,”)”. In the case of `C=CC(=O)N1CC(NC(=O)c2c(Cl)nc(CNc3n[nH]c4cc(Cl)c(C(C)(C)C)cc34)n2[C@@H]2CCN(C3COC3)C2)C1` [Example 121, (R)—N-(1-acryloylazetidin-3-yl)-2-(((5-(tert-butyl)-6-chloro-1H-indazol-3-yl)amino)methyl)-4-chloro-1-(1-(oxetan-3-yl)pyrrolidin-3-yl)-1H-imidazole-5-carboxamide], the “binding rate for G12C K-Ras4B (1-169)” value is reported as “A (a binding rate of 80% or more is rated “A,”)”.

Source: patent US12065430B2, “Indazole compound or salt thereof” (TAIHO PHARMACEUTICAL CO., LTD., priority 2018, dated 2024)
